Source: patent US9260382B2, “Methods of reducing virulence in bacteria” (priority 2010, dated 2016)

test system: hrpA promoter (T3SS); assay: GFP reporter plasmid phrpA, flow cytometry (FACS) of hrpA promoter activity; assay type: cell-based, Dickeya dadantii 3937; conditions: D. dadantii 3937 (phrpA), MM + 100 μM compound, 12 h
Experimental: FACS analysis of promoter activity of dspE, hrpA, hrpL, hrpN, and hrpS was carried out as described (Peng et al., 2006). Briefly, the wild-type Ech3937 and the mutant strains carrying the promoter reporter plasmid were grown on LB broth at 28° C. overnight and transferred to appropriate media. For FACS analysis, samples were collected by centrifugation, washed with 1× phosphate buffer saline (PBS) at 13,000 rpm for 1 min, and re-suspended in 1×PBS to ca 10^6 CFU/ml prior to being run in a FACS Calibur flow cytometer (BD Biosciences, CA). Three replicates were performed for each treatment.
To identify potential compounds that repress activation of T3SS, analogs and isomers of TCA and intermediates of salicylic acid and phenypropanoid biosynthesis pathways in plants were further screened for their effect on Ech3937 hrpA expression by flow cytometry (Table 9). A green fluorescent protein (GFP) reporter plasmid phrpA (pProbe-AT derivative with PCR fragment containing hrpA promoter region) was constructed, resulting in a transcriptional fusion of hrpA promoter with GFP gene. Bacterial cells containing phrpA plasmid were grown in MM supplemented with 0.1 mM of each compound. GFP intensity, which is a measurement of hrpA promoter activity, was measured by flow cytometry.
hrpA encodes the T3SS pilus required for protein translocation into plant cells. To test for an inhibitory effect on T3SS hrpA expression, the reporter plasmid phrpA was used to measure the effects of these compounds on hrpA expression. The reporter plasmid phrpA encodes a transcriptional fusion of the hrpA promoter controlling expression of green fluorescent protein (gfp). 50 μL of bacterial suspension of D. dadantii 3937 carrying the hrpA reporter (optical density at 600 nm OD600=1.0) was used as the initial inoculum and added to 5 mL of MM or MM supplemented with 100 μM of one of the compounds. The expression level of hrpA of these bacterial cells was measured by measuring GFP intensity of gated populations of the bacterial cells by flow cytometry and analyzed with Cell Quest software (BD Biosciences, San Jose, Calif.). The fluorescence intensities were an average GFP fluorescence intensity of total bacterial cells. Compounds were assayed two different times (12 and 24 h of bacterial growth) with T3SS minimal media (MM) as the control treatment for each set of experiment. Values presented in Table 14 are mean fluorescence intensity of GFP, representative of two experiments, presented as the average of three replicates with standard deviation (SD).

| SMILES | mean fluorescence intensity of GFP, hrpA expression |
| --- | --- |
| O=C(O)/C=C/c1ccc(-c2ccccc2)cc1 [Compound 108, trans-4-Phenylcinnamic acid] | 31.6 ± 2.5 |
| NC/C=C/c1ccc(O)cc1 [Compound 117, para-Coumarylamine] | 49.8 ± 1.6 |
| O=C(O)/C=C/c1ccc(C(F)(F)F)cc1 [Compound 113, trans-4-Trifluoromethylcinnamic acid] | 24.4 ± 0.9 |
| O=C(O)/C=C/c1ccc(CO)cc1 [Compound 124, trans-4-Hydroxymethylcinnamic acid] | 44.9 ± 3.5 |
| CCOP(=O)(/C=C/c1ccc(O)cc1)OCC [Compound 114, Diethyl trans-2-(4-hydroxyphenyl)-vinylphosphonate] | 55.4 ± 1.0 |
| CCOC(=O)[C@@H]1C[C@H]1c1ccc(OC)cc1 (relative stereo) [Compound 100, Ethyl trans-2-(4-methoxyphenyl)-1-cyclopropanecarboxylate] | 45.3 ± 3.4 |
| CN(C)c1ccc(/C=C/C(=O)O)cc1 [Compound 112, trans-4-Dimethylaminocinnamic acid] | 23.8 ± 4.3 |
| NC(=O)/C=C/c1ccc(Cl)cc1 [Compound 109, trans-4-Chlorocinnamide] | 35.7 ± 6.3 |
| CCOS(=O)(=O)/C=C/c1ccc(O)cc1 [Compound 122, Ethyl trans-2-(4-hydroxyphenyl)-ethenylsulfonate] | 38.6 ± 1.8 |
| COc1ccc(/C=C/CN)cc1 [Compound 119, trans-4-Methoxycinnamylamine] | 47.8 ± 3.2 |
| NC(=O)/C=C/c1ccc(O)cc1 [Compound 102, trans-4-Hydroxycinnamaide] | 21.1 ± 1.2 |
| CCOS(=O)(=O)/C=C/c1ccc(OC)cc1 [Compound 120, Ethyl trans-2-(4-methoxyphenyl)-ethenylsulfonate] | 49.9 ± 2.6 |
| COc1ccc([C@@H]2C[C@H]2C(=O)O)cc1 (relative stereo) [Compound 105, trans-2-(4-Methoxyphenyl)-1-cyclopropanecarboxylic acid] | 22.9 ± 2.6 |

same assay, conditions: D. dadantii 3937 (phrpA), MM + 100 μM compound, 24 h

| SMILES | mean fluorescence intensity of GFP, hrpA expression |
| --- | --- |
| O=C(O)/C=C/c1ccc(-c2ccccc2)cc1 [Compound 108, trans-4-Phenylcinnamic acid] | 109.0 ± 19.8 |
| NC/C=C/c1ccc(O)cc1 [Compound 117, para-Coumarylamine] | 73.1 ± 2.0 |
| O=C(O)/C=C/c1ccc(C(F)(F)F)cc1 [Compound 113, trans-4-Trifluoromethylcinnamic acid] | 68.5 ± 5.7 |
| O=C(O)/C=C/c1ccc(CO)cc1 [Compound 124, trans-4-Hydroxymethylcinnamic acid] | 78.1 ± 3.4 |
| CCOP(=O)(/C=C/c1ccc(O)cc1)OCC [Compound 114, Diethyl trans-2-(4-hydroxyphenyl)-vinylphosphonate] | 76.5 ± 5.6 |
| CCOC(=O)[C@@H]1C[C@H]1c1ccc(OC)cc1 (relative stereo) [Compound 100, Ethyl trans-2-(4-methoxyphenyl)-1-cyclopropanecarboxylate] | 119.1 ± 22.1 |
| CN(C)c1ccc(/C=C/C(=O)O)cc1 [Compound 112, trans-4-Dimethylaminocinnamic acid] | 60.7 ± 6.4 |
| NC(=O)/C=C/c1ccc(Cl)cc1 [Compound 109, trans-4-Chlorocinnamide] | 81.5 ± 3.8 |
| CCOS(=O)(=O)/C=C/c1ccc(O)cc1 [Compound 122, Ethyl trans-2-(4-hydroxyphenyl)-ethenylsulfonate] | 60.9 ± 0.8 |
| COc1ccc(/C=C/CN)cc1 [Compound 119, trans-4-Methoxycinnamylamine] | 68.2 ± 10.4 |
| NC(=O)/C=C/c1ccc(O)cc1 [Compound 102, trans-4-Hydroxycinnamaide] | 60.8 ± 10.6 |
| CCOS(=O)(=O)/C=C/c1ccc(OC)cc1 [Compound 120, Ethyl trans-2-(4-methoxyphenyl)-ethenylsulfonate] | 68.6 ± 6.0 |
| COc1ccc([C@@H]2C[C@H]2C(=O)O)cc1 (relative stereo) [Compound 105, trans-2-(4-Methoxyphenyl)-1-cyclopropanecarboxylic acid] | 82.4 ± 5.8 |

same assay, conditions: D. dadantii 3937, reporter plasmid phrpA, 100 μM

| SMILES | inhibitory activity on T3SS gene (hrpA) expression, in words |
| --- | --- |
| O=C(O)/C=C/c1ccc(-c2ccccc2)cc1 [Compound 108, trans-4-Phenylcinnamic acid] | inactive |
| NC/C=C/c1ccc(O)cc1 [Compound 117, para-Coumarylamine] | did not show any inhibitory activity |
| O=C(O)/C=C/c1ccc(C(F)(F)F)cc1 [Compound 113, trans-4-Trifluoromethylcinnamic acid] | inactive |
| O=C(O)/C=C/c1ccc(CO)cc1 [Compound 124, trans-4-Hydroxymethylcinnamic acid] | did not show any inhibitory activity |
| CCOP(=O)(/C=C/c1ccc(O)cc1)OCC [Compound 114, Diethyl trans-2-(4-hydroxyphenyl)-vinylphosphonate] | did not exhibit any activity |
| CCOS(=O)(=O)/C=C/c1ccc(O)cc1 [Compound 122, Ethyl trans-2-(4-hydroxyphenyl)-ethenylsulfonate] | did not exhibit any activity |
| COc1ccc(/C=C/CN)cc1 [Compound 119, trans-4-Methoxycinnamylamine] | did not show any inhibitory activity |
| NC(=O)/C=C/c1ccc(O)cc1 [Compound 102, trans-4-Hydroxycinnamaide] | did not show any inhibitory activity |
| CCOS(=O)(=O)/C=C/c1ccc(OC)cc1 [Compound 120, Ethyl trans-2-(4-methoxyphenyl)-ethenylsulfonate] | did not exhibit any activity |

same assay, conditions: Dickeya dadantii, read-out: minimal inhibitory concentration on hrpA expression (concentration showing inhibitory effect)

| SMILES | minimal effective concentration [µM] |
| --- | --- |
| O=C(O)/C=C/c1ccc(C(F)(F)F)cc1 [Compound 113, trans-4-Trifluoromethylcinnamic acid] | 100 |
| NC(=O)/C=C/c1ccc(O)cc1 [Compound 102, trans-4-Hydroxycinnamaide] | 100 |
| COc1ccc([C@@H]2C[C@H]2C(=O)O)cc1 (relative stereo) [Compound 105, trans-2-(4-Methoxyphenyl)-1-cyclopropanecarboxylic acid] | 100 |

test system: hrpA promoter (T3SS); assay: hrpA promoter-probe phrpA in Erwinia amylovora 273, flow cytometry; assay type: cell-based; conditions: Ea273 (phrpA), HIM + 100 μM compound, 6 h
Experimental: Wild-type Erwinia amylovora 273 was used in this study. The promoter-probe plasmid phrpA was constructed as follows. The hrpA promoter region of Erwinia amylovora 273 was amplified and cloned into pPROBE-NT to produce PhrpA. Plasmid PhrpA was electroporated into Erwinia amylovora 273. Expression of hrpA was analyzed using a FACS Calibur flow cytometer (BD Biosciences, CA). Wild-type Erwinia amylovora 273 containing phrpA was cultured in a hrp-inducing medium (HIM) containing dimethyl sulfoxide (DMSO; solvent of chemical compounds), or HIM supplemented with 100 μM of each compound, and promoter activity was assessed at 6 h and 9 h by measuring GFP intensity using flow cytometry (Table 19).

| SMILES | Avg MFI ± SD, hrpA expression |
| --- | --- |
| NC/C=C/c1ccc(O)cc1 [Compound 117, para-Coumarylamine] | 452.6 ± 9.5 |
| O=C(O)/C=C/c1ccc(C(F)(F)F)cc1 [Compound 113, trans-4-Trifluoromethylcinnamic acid] | 84.2 ± 7.5 |
| O=C(O)/C=C/c1ccc(CO)cc1 [Compound 124, trans-4-Hydroxymethylcinnamic acid] | 419.8 ± 12.2 |
| CCOP(=O)(/C=C/c1ccc(O)cc1)OCC [Compound 114, Diethyl trans-2-(4-hydroxyphenyl)-vinylphosphonate] | 495.8 ± 14.2 |
| CCOC(=O)[C@@H]1C[C@H]1c1ccc(OC)cc1 (relative stereo) [Compound 100, Ethyl trans-2-(4-methoxyphenyl)-1-cyclopropanecarboxylate] | 447.8 ± 20.2 |
| CN(C)c1ccc(/C=C/C(=O)O)cc1 [Compound 112, trans-4-Dimethylaminocinnamic acid] | 87.0 ± 4.0 |
| NC(=O)/C=C/c1ccc(Cl)cc1 [Compound 109, trans-4-Chlorocinnamide] | 172.9 ± 20.5 |
| CCOS(=O)(=O)/C=C/c1ccc(O)cc1 [Compound 122, Ethyl trans-2-(4-hydroxyphenyl)-ethenylsulfonate] | 2042.8 ± 20.7 |
| COc1ccc(/C=C/CN)cc1 [Compound 119, trans-4-Methoxycinnamylamine] | 208.6 ± 18.6 |
| NC(=O)/C=C/c1ccc(O)cc1 [Compound 102, trans-4-Hydroxycinnamaide] | 1134.0 ± 36.7 |
| CCOS(=O)(=O)/C=C/c1ccc(OC)cc1 [Compound 120, Ethyl trans-2-(4-methoxyphenyl)-ethenylsulfonate] | 371.5 ± 29.7 |
| COc1ccc([C@@H]2C[C@H]2C(=O)O)cc1 (relative stereo) [Compound 105, trans-2-(4-Methoxyphenyl)-1-cyclopropanecarboxylic acid] | 345.3 ± 11.9 |
| O=C(O)/C=C/c1ccc(C(=O)O)cc1 [Compound 025, trans-4-Carboxycinnamic acid] | 421.0 ± 10.6 |

same assay, conditions: Ea273 (phrpA), HIM + 100 μM compound, 9 h

| SMILES | Avg MFI ± SD, hrpA expression |
| --- | --- |
| NC/C=C/c1ccc(O)cc1 [Compound 117, para-Coumarylamine] | 547.9 ± 112.4 |
| O=C(O)/C=C/c1ccc(C(F)(F)F)cc1 [Compound 113, trans-4-Trifluoromethylcinnamic acid] | 97.4 ± 23.6 |
| O=C(O)/C=C/c1ccc(CO)cc1 [Compound 124, trans-4-Hydroxymethylcinnamic acid] | 444.3 ± 11.4 |
| CCOP(=O)(/C=C/c1ccc(O)cc1)OCC [Compound 114, Diethyl trans-2-(4-hydroxyphenyl)-vinylphosphonate] | 661.2 ± 134.3 |
| CCOC(=O)[C@@H]1C[C@H]1c1ccc(OC)cc1 (relative stereo) [Compound 100, Ethyl trans-2-(4-methoxyphenyl)-1-cyclopropanecarboxylate] | 594.6 ± 3.5 |
| CN(C)c1ccc(/C=C/C(=O)O)cc1 [Compound 112, trans-4-Dimethylaminocinnamic acid] | 37.3 ± 3.7 |
| NC(=O)/C=C/c1ccc(Cl)cc1 [Compound 109, trans-4-Chlorocinnamide] | 90.6 ± 12.0 |
| CCOS(=O)(=O)/C=C/c1ccc(O)cc1 [Compound 122, Ethyl trans-2-(4-hydroxyphenyl)-ethenylsulfonate] | 2900.6 ± 120.1 |
| COc1ccc(/C=C/CN)cc1 [Compound 119, trans-4-Methoxycinnamylamine] | 232.9 ± 44.4 |
| NC(=O)/C=C/c1ccc(O)cc1 [Compound 102, trans-4-Hydroxycinnamaide] | 766.4 ± 94.8 |
| CCOS(=O)(=O)/C=C/c1ccc(OC)cc1 [Compound 120, Ethyl trans-2-(4-methoxyphenyl)-ethenylsulfonate] | 492.0 ± 37.6 |
| COc1ccc([C@@H]2C[C@H]2C(=O)O)cc1 (relative stereo) [Compound 105, trans-2-(4-Methoxyphenyl)-1-cyclopropanecarboxylic acid] | 200.2 ± 11.0 |
| O=C(O)/C=C/c1ccc(C(=O)O)cc1 [Compound 025, trans-4-Carboxycinnamic acid] | 496.7 ± 98.9 |
